Assays:
Test in all cases: relative viability (nuclei count vs DMSO), 5 days (fraction); higher = more cells survive
[1] = compound: COc1cc2nc(N3CCCN(C)CC3)nc(NC3CCN(Cc4ccccc4)CC3)c2cc1OC + C[C@@H](Oc1cc(-c2cnn(C3CCNCC3)c2)cnc1N)c1c(Cl)ccc(F)c1Cl [Crizotinib] (partner 1 µM)
How it was run: (§1)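 Relative viability divides the nuclei count in treated wells by that in vehicle wells. Lung cancer cell lines were seeded in 1536-well plates, dosed by pin tool the next day, and fixed and stained after 5 days in one step with final 0.05% Triton X-100, 1% formaldehyde and 1 ug/ml Hoechst. Dosing was a single drug or a fixed anchor-drug dose plus five library-drug doses (not always all listed) in √10 steps, and values are medians of duplicate plates imaged at 4×.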

AZD6482 + OSI-027 = compound: Cc1cc([C@@H](C)Nc2ccccc2C(=O)O)c2nc(N3CCOCC3)cc(=O)n2c1 [AZD6482] + COc1cccc2cc(-c3nc([C@H]4CC[C@H](C(=O)O)CC4)n4ncnc(N)c34)[nH]c12 [OSI-027] (partner 0.5 µM)
How it was run: as §1

[2] = compound: COc1cc2nc(N3CCCN(C)CC3)nc(NC3CCN(Cc4ccccc4)CC3)c2cc1OC + COc1cccc2cc(-c3nc([C@H]4CC[C@H](C(=O)O)CC4)n4ncnc(N)c34)[nH]c12 [OSI-027] (partner 0.5 µM)
How it was run: as §1

[3] = compound: COc1cc2nc(N3CCCN(C)CC3)nc(NC3CCN(Cc4ccccc4)CC3)c2cc1OC + Nc1ncn([C@H]2C[C@H](O)[C@@H](CO)O2)c(=O)n1 [Decitabine] (partner 2 µM)
How it was run: as §1

Row | Cell Line | relative viability ([1]; first compound 0.2 µM) | relative viability ([1]; first compound 0.6325 µM) | relative viability ([1]; first compound 2 µM) | relative viability ([1]; first compound 6.325 µM) | relative viability (AZD6482 + OSI-027; first compound 0.08 µM) | relative viability (AZD6482 + OSI-027; first compound 0.253 µM) | relative viability (AZD6482 + OSI-027; first compound 0.8 µM) | relative viability (AZD6482 + OSI-027; first compound 2.53 µM) | relative viability (AZD6482 + OSI-027; first compound 8 µM) | relative viability ([2]; first compound 0.2 µM) | relative viability ([2]; first compound 0.6325 µM) | relative viability ([2]; first compound 2 µM) | relative viability ([2]; first compound 6.325 µM) | relative viability ([3]; first compound 0.2 µM) | relative viability ([3]; first compound 0.6325 µM) | relative viability ([3]; first compound 2 µM) | relative viability ([3]; first compound 6.325 µM)
1 | BEN | 0.923 | 0.892 | 0.944 | 0.963 | 0.314 | 0.302 | 0.273 | 0.276 | 0.299 | 0.317 | 0.28 | 0.288 | 0.244 | 0.765 | 0.743 | 0.914 | 0.699
2 | NCI-H23 | 0.417 | 0.556 | 0.59 | 0.546 | 0.592 | 0.512 | 0.592 | 0.364 | 0.302 | 0.637 | 0.578 | 0.707 | 0.503 | 0.307 | 0.334 | 0.316 | 0.322
3 | 201T | 0.995 | 1.1 | 1.04 | 0.995 | 0.657 | 0.663 | 0.631 | 0.462 | 0.601 | 0.706 | 0.811 | 0.73 | 0.601 | 0.889 | 0.812 | 0.859 | 0.799
4 | NCI-H2170 | 1.19 | 1.17 | 1.23 | 1.24 | 0.66 | 0.631 | 0.612 | 0.531 | 0.677 | 0.802 | 0.711 | 0.695 | 0.682 | 0.487 | 0.454 | 0.49 | 0.46
5 | NCI-H460 | 0.833 | 0.878 | 0.893 | 0.313 | 0.631 | 0.589 | 0.543 | 0.326 | 0.292 | 0.669 | 0.674 | 0.565 | 0.63 | 0.484 | 0.449 | 0.431 | 0.389
6 | NCI-H661 | 0.995 | 0.9 | 1.24 | 0.922 | 0.651 | 0.722 | 0.649 | 0.4 | 0.435 | 0.734 | 0.691 | 0.772 | 0.725 | 0.58 | 0.569 | 0.588 | 0.689
7 | HCC-15 | 0.817 | 0.82 | 0.823 | 0.711 | 0.672 | 0.61 | 0.666 | 0.385 | 0.485 | 0.696 | 0.712 | 0.619 | 0.377 | 0.688 | 0.875 | 0.649 | 0.495
8 | ABC-1 | 1.01 | 1.01 | 1.05 | 1.15 | 0.51 | 0.478 | 0.358 | 0.401 | 0.406 | 0.479 | 0.583 | 0.444 | 0.336 | 0.969 | 1.09 | 0.929 | 1.19
9 | LCLC-103H | 1 | 0.973 | 1.14 | 1.06 | 0.414 | 0.452 | 0.492 | 0.273 | 0.31 | 0.454 | 0.564 | 0.537 | 0.449 | 0.74 | 0.794 | 0.777 | 0.701
10 | NCI-H441 | 0.656 | – | 0.59 | 0.701 | 0.669 | 0.4 | 0.627 | – | 0.508 | 0.576 | 0.521 | 0.573 | 0.591 | 0.239 | 0.225 | 0.3 | 0.206
11 | EPLC-272H | 0.811 | 0.915 | 1.05 | 0.785 | 0.29 | 0.235 | 0.345 | 0.214 | 0.255 | 0.358 | 0.32 | 0.316 | 0.205 | 0.392 | 0.387 | 0.341 | 0.38
